Patent publication US10759839B2, “Cell-penetrating peptide” (NEOREGEN BIOTECH, priority 2016, dated 2020)
Entries after “also recorded” stand apart in the source; their conditions may differ. Where no end group is shown, it is not given here.

Legend:
[1] = system: Human mesenchymal stem cells (human MSCs); test: Confocal microscopy of intracellular localisation with membrane marker FM-64 (FIG. 3); type: cell-based
Source text: Further, in order to determine whether the Ara-27 cell-penetrating peptide is actually present in intracellular nuclei or cytoplasm, the Ara-27 peptide was fluorescently treated, and then analyzed using a confocal microscope. Human mesenchymal stem cells (human MSCs) were placed in a DMEM cell culture medium containing 10% FBS in a 6-well plate. […] Next, a membrane marker (FM-64) was used to examine whether the peptides are actually present inside the cell membrane. The cells were removed with trypsin to allow reagents to be inserted into the cell membrane, and the reagents were treated to perform the analysis. At this time, it can be confirmed that most of peptides were present in cytoplasmic parts inside the cell membranes, and some of the peptides were also present in the nucleus (FIG. 3).

human-derived MSCs = test: Fluorescence microscopy of peptide entry into cells (FIG. 2); type: cell-based; conditions: 1 μM, 30 minutes, medium containing 10% serum, heparin washing, trypsin
Description: An experiment was conducted in a medium containing 10% serum, and after treatment for 30 minutes at a concentration of 1 μM, fluorescent peptides adhered to the cell surface were removed using a heparin washing method, and then the cell was separated therefrom by treatment with trypsin. FIG. 2 is photographs of cells taken by the fluorescence microscope after separation.

[2] = system: mesenchymal stem cell (MSC); test: Cell penetration of FITC-labelled peptide by concentration, FACS fluorescence intensity (FIG. 1); type: cell-based, human; conditions: 1 hour
Source text: FIG. 1 is a graph showing that a cell membrane penetration efficiency of Ara-27 cell-penetrating peptide is increased in proportion to a concentration in mesenchymal stem cell (MSC) derived from a human body. In the graph, a Y axis represents a fluorescence intensity, which is an index indicating an amount of introduced peptides per unit cell.
(§1) In order to confirm the cell penetration efficiency of each cell-penetrating peptide, fluorescein isothiocyanate (FITC, fluorescent material), which fluoresces each peptide, was adhered to each peptide, then penetration efficiencies thereof were examined.
When measuring the cell penetration efficiency, in order to remove each cell-penetrating peptide which may be adhered to the cell membrane surface, a Heparin & Trypsin washing method used in the Kaplan group was applied thereto [Kaplan I M, Wadia J S, Dowdy S F (2005) Cationic TAT peptide transduction domain enters cells by macropinocytosis. J Controlled release 102: 247-253). […]
In the mesenchymal stem cell (MSC), an amount of the cell-penetrating peptide (Ara-27) including an amino acid sequence of SEQ ID NO: 2 into the cell was determined for each concentration.

NIH3T3 fibroblast = test: Cell penetration efficiency of FITC-peptides, heparin and trypsin washing, FACS (FIG. 6); type: cell-based; conditions: 1 μM
Source text: FIG. 6 is a graph showing results of comparing the cell penetration efficiencies of Ara-27, ara-20, R8-Ara-19 and Ara-8 cell-penetrating peptides in a NIH3T3 fibroblast.
as §1
When measuring the cell penetration efficiency, in order to remove each cell-penetrating peptide which may be adhered to the cell membrane surface, a Heparin & Trypsin washing method used in the Kaplan group was applied thereto [Kaplan I M, Wadia J S, Dowdy S F (2005) Cationic TAT peptide transduction domain enters cells by macropinocytosis. J Controlled release 102: 247-253). In summary, in the experiments to be described below, each cell-penetrating peptide was put into a cell growth medium at a concentration of 1 μM, incubated for 30 minutes, and then the cells were washed 3 times with Heparin, followed by separating the cells with trypsin to perform a FACS analysis.
Next, the cell penetration efficiencies of Ara-27 and the cell-penetrating peptides including amino acid sequences of SEQ ID NO: 1 (Ara-20), SEQ ID NO: 3 (R8-Ara-19), and SEQ ID NO: 11 (Ara-8) of the examples in a NIH3T3 fibroblast were compared.

NIH3T3 cell line = test: Cell penetration efficiency of FITC-labelled p53C, Tat-Ara-19 and ICT-53 (FIG. 7); type: cell-based; conditions: 1 μM, 1 hour
Description: FIG. 7 is a graph showing results of comparing the cell penetration efficiencies of p53C, Tat-ara-19 and ICT-53 peptides.
A p53C peptide having 22 amino acid sequences and Tat-Ara-19 peptide, as well as the ICT-53 peptide, in which the p53C peptide is fused to the Tat-Ara-19 peptide, were synthesized, then fluorescein isothiocyanate (FITC, fluorescent material) was adhered to the C-terminus thereof so as to fluoresce. These peptides were used to examine the cell penetration efficiency for 1 hour at a concentration of 1 μM in a NIH3T3 cell line. […] In this experiment, the penetration efficiency in a situation including serum was also examined.

U2OS cancer cell line = test: Anti-cancer effect of purified ICT-53 peptide (FIGS. 9 and 10); type: cell-based; conditions: for each concentration

Ara-27: cell-penetrating peptide including an amino acid sequence of SEQ ID NO: 2, Arabidopsis thaliana-derived (RNQRKTVRCFRCRQAGHWISDCRLKSK; Ara-27)
location of the peptide in the cell ([1]; 2 μM, DMEM containing 10% FBS): most of the Ara-27 peptides were present in the cytoplasm
persistence of the peptide in the cell ([1]; 5 μM, 18 hours after penetration): stably exist therein
location of the peptide in the cell ([1]; 5 μM, 18 hours after penetration, membrane marker): not only in the cytoplasm but also in the nucleus
peptides that entered the cells, seen by fluorescence microscope (human-derived MSCs): found across all the cells; also recorded: high fluorescence intensity
amount of the peptide introduced per unit cell (fluorescence intensity) ([2]; for each concentration): increased in proportion to the concentration
efficiency of penetrance into the cell (NIH3T3 fibroblast; within 30 minutes, environment including serum): ≥ 90%

RKKRRQRRCFRCRQAGHWISDCRLKSKGSRAHSSHLKSKKGQSTSRHKK (cysteines drawn unpaired) [ICT-53]
cell penetration efficiency (in words) (NIH3T3 cell line): high efficiency
anti-cancer effect, dependence on concentration (U2OS cancer cell line): in proportion to the concentration

Tat-Ara-19: cell-penetrating peptide including an amino acid sequence of SEQ ID NO: 4 (RKKRRQRRCFRCRQAGHWISDCRLKSK; Tat-Ara-19)
cell penetration efficiency (in words) (NIH3T3 cell line): high efficiency

Tat-PTD: Tat-PTD (SEQ ID NO: 12), a well-known cell-penetrating peptide, used as control group (RKKRRQRR; Tat-PTD) [reference compound]
peptides that entered the cells, seen by fluorescence microscope (human-derived MSCs): very rarely found
amount of the peptide introduced per unit cell (fluorescence intensity) ([2]; even at 5 μM): remarkably low
cell penetration efficiency (in words) (NIH3T3 fibroblast; NIH3T3 fibroblast, 30 minutes): very low level

p53C: p53C peptide (SEQ ID NO: 5), peptide of a C-terminal region of a p53 protein, 22 amino acids (GSRAHSSHLKSKKGQSTSRHKK; p53C) [reference compound]
cell penetration efficiency (in words) (NIH3T3 cell line): did not penetrate into the cell
